Laboratory results reported in US5834461A, “Tricyclic benzazepine vasopressin antagonists” (American Cyanamid Company, priority 1997, dated 1998).

Columns and labels:
[1] = target: T1, rat kidney medullary V2 receptors (Rattus norvegicus, UniProt Q00788); test: Binding Assay to Rat Kidney Medullary V2 Receptors; conditions: rat kidney medullary V2
T1 construct: Medullary tissues from rat kidneys are dissected out; from tissue; host or cells: rat kidney medulla membranes
Procedure: Medullary tissues from rat kidneys are dissected out, cut into small pieces and soaked in a […] sodium chloride solution containing 1.0 mM EDTA with many changes of the liquid phase, until the solution is clear of blood. The tissue is homogenized in a 0.25M sucrose solution containing 1.0 mM EDTA and 0.1 mM PMSF using a Potter-Elvehjem homogenizer with a teflon pestle. The homogenate is filtered through several layers (4 layers) of cheese cloth. The filtrate is rehomogenized using a dounce homogenizer, with a tight fitting pestle. The final homogenate is centrifuged at 1500×g for 15 min. The nuclear pellet is discarded and the supernatant fluid recentrifuged at 40,000×g for 30 min. The resulting pellet formed contains a dark inner part with the exterior, slightly pink. The pink outer part is suspended in a small amount of 50.0 mM Tris.HCl buffer, pH 7.4. The protein content is determined by the Lowry's method (Lowry et al., J. Biol. Chem., 1953). The membrane suspension is stored at -70° C., in 50.0 mM Tris.HCl, containing 0.2% inactivated BSA and 0.1 mM PMSF in aliquots of 1.0 ml containing 10.0 mg protein per ml of suspension until use in subsequent binding experiments.
For binding experiments, the following is added in μl volume to wells of a 96 well format of a microtiter plate: 100.0 μl of 100.0 mM Tris.HCl buffer containing 0.2% heat inactivated BSA, 10.0 mM MgCl2 and a mixture of protease inhibitors: leupeptin, 1.0 mg %; aprotinin, 1.0 mg %; 1,10-phenanthroline, 2.0 mg %; trypsin inhibitor, 10.0 mg % and 0.1 mM PMSF, 20.0 μl of [^3 H] Arginine^8, vasopressin (S.A. 75.0 Ci/mmole) at 0.8 nM and the reaction initiated by the addition of 80.0 μl of tissue membranes (200.0 μg tissue protein). The plates are left undisturbed on the bench top for 120 min to reach equilibrium. Non-specific binding is assessed in the presence of 1.0 μM of unlabeled ligand, added in 20 μl volume. For test compounds, these are solubilized in 50% dimethylsulfoxide (DMSO) and added in 20.0 μl volume to a final incubation volume of 200 μl. Upon completion of binding, the content of each well is filtered off, using a Brandel® cell Harvester (Gaithersburg, Md.). The radioactivity trapped on the filter disk by the ligand-receptor complex is assessed by liquid scintillation counting in a Packard LS Counter, with an efficiency of 65% for tritium.

[2] = target: vasopressin V1 receptor (rat liver plasma membranes) (Rattus norvegicus, UniProt P30560); test: Binding Assay to Rat Hepatic V1 Receptors; conditions: rat hepatic V1
Sequence of vasopressin V1 receptor (rat liver plasma membranes) (P30560 whole entry): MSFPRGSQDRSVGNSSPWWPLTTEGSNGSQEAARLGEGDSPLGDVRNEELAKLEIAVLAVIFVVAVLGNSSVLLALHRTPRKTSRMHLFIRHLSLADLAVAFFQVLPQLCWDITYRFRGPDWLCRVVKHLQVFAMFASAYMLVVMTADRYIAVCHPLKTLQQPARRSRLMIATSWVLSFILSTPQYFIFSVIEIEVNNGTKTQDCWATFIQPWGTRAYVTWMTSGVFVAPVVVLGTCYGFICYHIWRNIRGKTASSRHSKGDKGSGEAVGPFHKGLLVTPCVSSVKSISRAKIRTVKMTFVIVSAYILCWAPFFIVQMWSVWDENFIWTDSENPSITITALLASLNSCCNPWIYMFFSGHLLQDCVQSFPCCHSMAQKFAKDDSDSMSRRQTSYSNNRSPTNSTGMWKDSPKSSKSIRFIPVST
Procedure: Rat liver plasma membranes expressing the vasopressin V1 receptor subtypes are isolated by sucrose density gradient according to the method described by Lesko et al., (1973). These membranes are quickly suspended in 50.0 mM Tris.HCl buffer, pH 7.4, containing 0.2% bovine serum albumin (BSA) and 0.1 mM phenylmethylsulfonylfluoride (PMSF) and kept frozen at -70° C. until used in subsequent binding experiments. For binding experiments, the following is added to the wells of a ninety-six well format microtiter plate: 100 μl of 100.0 mM Tris.HCl buffer containing 10.0 mM MgCl2, 0.2% heat inactivated BSA and a mixture of protease inhibitors: leupeptin, 1.0 mg %; aprotinin, 1.0 mg %; 1,10-phenanthroline,2.0 mg %; trypsin inhibitor, 10.0 mg % and 0.1 mM PMSF, 20.0 μl of [phenylalanyl-3,4,5,-^3 H] vasopressin (S.A. 45.1 Ci/mmole) at 0.8 nM, and the reaction initiated by the addition of 80 μl of tissue membranes containing 20 μg of tissue protein. The plates are kept undisturbed on the bench top at room temperature for 120 min. to reach equilibrium. Non-specific samples are assayed in the presence of 0.1 μM of the unlabeled antagonist phenylalanylvasopressin, added in 20.0 μl volume.
For test compounds, these are solubilized in 50% dimethylsulfoxide (DMSO) and added in 20.0 μl volume to a final incubation volume of 200 μl. Upon completion of binding, the content of each well is filtered off, using a Brandel® cell Harvester (Gaithersburg, Md.). The radioactivity trapped on the filter disk by the ligand-receptor complex is assessed by liquid scintillation counting in a Packard LS Counter, with an efficiency of 65% for tritium.

[3] = system: vasopressin V1; test: Vasopressin V1 Antagonist Activity in Conscious Rats (vasopressin vasopressor response); assay type: in vivo, rat (spontaneously hypertensive rats); set-up: Average Change: unit not given here
Procedure: Conscious rats are restrained in a supine position with elastic tape. The area at the base of the tail is locally anesthetized by subcutaneous infiltration with 2% procaine (0.2 ml). Using aseptic technique the ventral caudal tail artery is isolated and a cannula made of PE 10 and 20 (heat-fused) tubing is passed into the lower abdominal aorta. The cannula is secured, heparinized (1000 i.u./cc), sealed and the wound closed with one or two stitches of Dexon 4-0. The caudal vein is also cannulated in the same manner for intravenous drug administration. The duration of the surgery is approximately 5 minutes. Additional local anesthesia (2% procaine or lidocaine) is provided as needed.
The animals are placed in plastic restraining cages in an upright position. The cannula is attached to a Statham P23Db pressure transducer and pulsatile blood pressure is recorded. […] The vasopressin injections are repeated 30, 60, 90, 120, 180, 240 and 300 min. later. Percentage of antagonism by the compound is calculated using the pre-drug vasopressin vasopressor response as 100%.

[4] = system: vasopressin V2; test: Vasopressin V2 Antagonist Activity in Conscious Hydrated Rats (diuretic effect); assay type: in vivo, normal Sprague-Dawley rats; conditions: 10 mg/kg orally, AVP 0.4 μg/kg i.p.
Procedure: Conscious hydrated rats are treated with compounds under study from 0.1 to 100 mg/kg orally or vehicle. Two to four rats are used for each compound. One hour later, arginine vasopressin (AVP, antidiuretic hormore, ADH) dissolved in peanut oil is administered at 0.4 μg/kg intraperitoneally. Two rats in each test would not receive arginine vasopressin but only the vehicle (peanut oil) to serve as water-loading control. Twenty minutes later each rat is given 30 mL/kg of deionized water orally by gavage and is placed individually in a metabolic cage equipped with a funnel and a graduated glass cylinder to collect urine for four hours. Urine volume is measured and osmolality analyzed by use of a Fiske One-Ten osmometer (Fiske Assoc., Norwood, Mass., USA). Urinary sodium, potassium, and chloride are analyzed by use of ion-specific electrodes in a Beckman E3 (Electrolyte 3) Analyzer. In the following results, […] and decreased osmolality relative to AVP-control indicates activity.

[5] = 10 mg/kg i.v., VAS 0.01 i.u./kg, 30 min
[6] = 10 mg/kg i.v., VAS 0.02 i.u./kg, 30 min
[7] = 20 mg/kg i.v., VAS 0.01 i.u./kg, 60 min
[8] = 20 mg/kg i.v., VAS 0.01 i.u./kg, 90 min
[9] = 20 mg/kg i.v., VAS 0.01 i.u./kg, 120 min
[10] = 20 mg/kg i.v., VAS 0.01 i.u./kg, 180 min
[11] = 20 mg/kg i.v., VAS 0.01 i.u./kg, 240 min
[12] = 20 mg/kg i.v., VAS 0.01 i.u./kg, 300 min
[13] = 20 mg/kg i.v., VAS 0.02 i.u./kg, 60 min
[14] = 20 mg/kg i.v., VAS 0.02 i.u./kg, 90 min
[15] = 20 mg/kg i.v., VAS 0.02 i.u./kg, 120 min
[16] = 20 mg/kg i.v., VAS 0.02 i.u./kg, 180 min
[17] = 20 mg/kg i.v., VAS 0.02 i.u./kg, 240 min
[18] = 20 mg/kg i.v., VAS 0.02 i.u./kg, 300 min

T1 sequence (Q00788 whole entry): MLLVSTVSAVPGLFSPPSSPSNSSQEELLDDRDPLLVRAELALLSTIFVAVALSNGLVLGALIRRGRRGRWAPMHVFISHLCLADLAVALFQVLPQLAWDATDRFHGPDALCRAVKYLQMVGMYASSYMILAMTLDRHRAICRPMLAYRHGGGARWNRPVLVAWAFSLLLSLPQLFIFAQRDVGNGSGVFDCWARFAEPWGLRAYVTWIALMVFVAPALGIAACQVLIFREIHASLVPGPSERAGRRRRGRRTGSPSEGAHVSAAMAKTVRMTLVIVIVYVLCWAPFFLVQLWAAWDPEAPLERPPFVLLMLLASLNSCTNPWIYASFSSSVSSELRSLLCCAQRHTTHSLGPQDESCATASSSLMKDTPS

With O=C(Nc1ccc(C(=O)N2Cc3ccccc3Cc3ccccc32)cc1)c1ccc(Cl)cc1Cl [Example 10, N-[4-[(6,11-Dihydro-5H-dibenz[b,e]azepin-5-yl)carbonyl]phenyl]2,4-dichlorobenzamide] the IC50 [1] was 0.064 µM, the IC50 [2] was 0.17 µM and the “Average Change” value [3, 5] was 37.5. For the same compound, the Inhibition [3, 5] was -25%, the “Average Change” value [3, 6] was 64.5 and the Inhibition [3, 6] was -26%. The “Average Change” value [3, 7] was 14.5, the Inhibition [3, 7] was 52% and the “Average Change” value [3, 8] was 16. The Inhibition [3, 8] was 47%, the “Average Change” value [3, 9] was 13.5 and the Inhibition [3, 9] was 55%. For the same compound, the “Average Change” value [3, 10] was 25.5, the Inhibition [3, 10] was 15% and the “Average Change” value [3, 11] was 22.5. For the same compound, the Inhibition [3, 11] was 25%, the “Average Change” value [3, 12] was 24.5 and the Inhibition [3, 12] was 18%. The “Average Change” value [3, 13] was 22.5, the Inhibition [3, 13] was 56% and the “Average Change” value [3, 14] was 23. For the same compound, the Inhibition [3, 14] was 55%, the “Average Change” value [3, 15] was 22 and the Inhibition [3, 15] was 57%. The “Average Change” value [3, 16] was 29.5, the Inhibition [3, 16] was 42% and the “Average Change” value [3, 17] was 34.5. For the same compound, the Inhibition [3, 17] was 32%, the “Average Change” value [3, 18] was 34 and the Inhibition [3, 18] was 33%. The Osmolality [4] was 1023 mOsm/kg and the “Urine Volume” value [4] was 7.1 ml/4 hrs.
